13 compounds from ChEMBL document CHEMBL1130968, “Synthesis and biological evaluation of 2,2-disubstituted 2-aminoethanols: analogues of FTY720” (1998) can be followed below.

Bounds are passed on as bounds.

In assay [1] the test system is Rattus norvegicus. The assay can be described thus: In vivo immunosuppressive effect of compound was determined on host versus graft reaction (HvGR) using popliteal lymph node gain assay in rat. The following applies: read-out: ID50 (the source's name). Format: functional.
For assay [2], the system named is Rattus norvegicus. Nature of the assay: Decrease in number of T cells in peripheral blood after administration for 4 days in rat. The following applies: T-cell, 96 h, read-out: ID50 (the source's name). In kind it is functional.

Turning to `CCCCCCCOc1ccc(CCC(N)(CO)CCC)cc1` (stereo unspecified), the ED50 came to 3.1 mg/kg in the assay on Rattus norvegicus [1] and 7.3 mg/kg in the assay with Rattus norvegicus [2].
With `CCCCCCCOc1ccc(CCC(N)(CO)C(C)C)cc1` (stereo unspecified), the ED50 in the assay on Rattus norvegicus [1] was found to be 2.7 mg/kg; with Rattus norvegicus [2], 4.5 mg/kg.
On to `CCCCCCCOc1ccc(CC[C@](C)(N)CO)cc1`, for which the ED50 in the assay on Rattus norvegicus [1] and in the assay on Rattus norvegicus [2] was more than 1 mg/kg in each case.
For `CCCCCCCOc1ccc(CC[C@@](C)(N)CO)cc1`, the results for the ED50 in the assay with Rattus norvegicus [1] and in the assay on Rattus norvegicus [2] were 0.088 mg/kg and 0.0092 mg/kg, respectively.
With `CCCCCCCOc1ccc(CCC(N)(CC)CO)cc1` (stereo unspecified), the ED50 amounted to 0.059 mg/kg in the assay with Rattus norvegicus [1] and 0.044 mg/kg in the assay on Rattus norvegicus [2].
For `CCCCCCCOc1ccc(CC[C@](N)(CO)CCC)cc1` the same measures were more than 10 mg/kg and more than 10 mg/kg.
Regarding `CCCCCCCCc1ccc(CCC(N)CO)cc1.Cl` (stereo unspecified), the ED50 with Rattus norvegicus [1] and in the assay on Rattus norvegicus [2] was more than 10 mg/kg in each case.
For `CCCCCCCOc1ccc(CCC(N)(CO)CO)cc1`, the results for the ED50 with Rattus norvegicus [1] and with Rattus norvegicus [2] were 0.049 mg/kg and 0.014 mg/kg, respectively.
As to `CCCCCCCOc1ccc(CCC(N)(CO)CCCC)cc1` (stereo unspecified), the ED50 in the assay with Rattus norvegicus [1] and with Rattus norvegicus [2] was more than 10 mg/kg in each case.
Turning to `CCCCCCCOc1ccc(CC[C@@](N)(CO)CCC)cc1`, the values for the ED50 in the assay on Rattus norvegicus [1] and in the assay with Rattus norvegicus [2] were 0.63 mg/kg and 4.4 mg/kg, respectively.
As for `CCCCCCCOc1ccc(CCC(C)(N)CO)cc1` (stereo unspecified), the values for the ED50 with Rattus norvegicus [1] and in the assay on Rattus norvegicus [2] were 0.031 mg/kg and 0.061 mg/kg, respectively.
On the same counts, the results for `C/C=C/C[C@@H](C)[C@@H](O)[C@H]1C(=O)N[C@@H](CC)C(=O)N(C)CC(=O)N(C)[C@@H](CC(C)C)C(=O)N[C@@H](C(C)C)C(=O)N(C)[C@@H](CC(C)C)C(=O)N[C@@H](C)C(=O)N[C@H](C)C(=O)N(C)[C@@H](CC(C)C)C(=O)N(C)[C@@H](CC(C)C)C(=O)N(C)[C@@H](C(C)C)C(=O)N1C` [CYCLOSPORINE] are 2.8 mg/kg and more than 30 mg/kg.
Turning to `CCCCCCCCc1ccc(CCC(N)(CO)CO)cc1.Cl` [FINGOLIMOD HYDROCHLORIDE], the ED50 in the assay with Rattus norvegicus [1] stood at 0.2 mg/kg; in the assay on Rattus norvegicus [2], 0.024 mg/kg.
